Legend:
[1] = system: A/Cambodia/0371/2007 (H1N1); assay: microbe, parasite or virus in culture; assay type: cell-based; settings: Influenza A virus, MDCK, read-out: Cell Protection Assay EC50 ± SD
[2] = system: A/New York/18/2009 (H1N1); assay: microbe, parasite or virus in culture; assay type: cell-based; settings: Influenza A virus, H1N1, MDCK; read-out: Cell Protection Assay EC50 ± SD

`O=C(O)[C@H]1C2CCC(CC2)C1Nc1nc(-c2c[nH]c3ncc(F)cc23)ncc1F` (some centres unmarked) [Compound (1)] gave an EC50 [1] of 0.61 ± 0.33 nM and an EC50 [2] of 0.59 nM.
